In patent publication US10253002B2, “Compounds and methods of treating infections” (Neoculi Pty Ltd., priority 2013, dated 2019):
In brackets after ≈: the same amount, converted by molar mass. Several values for one entry are separate records, joined by “and”; a condition that tells them apart may be missing. Equal entries are not always repeated. Where two headings read alike, the source gives them in different places.

Experiments:
[1] = Bioassay ranking of the analogues tested; details: M + R (MRSA and VRE combined)
MRSA = experiment: Broth microdilution MIC, Example 7 (NCL812 and analogues); format: cell-based, Staphylococcus aureus; details: for activity against MRSA among analogues: MIC testing, two MRSA strains; for MIC (μg/ml) at 24 hours, MRSA 1: MRSA 1, 24 hours; for MIC (μg/ml) at 24 hours, MRSA 2: MRSA 2, 24 hours; for MIC: Staphylococcus aureus; for MIC / MRSA: MRSA
Procedure, shortened: (§1)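 CLSI broth microdilution against two MRSA and two VRE strains, tested in duplicate with a third run if results differed by more than one two-fold dilution.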

Escherichia coli = experiment: as above; format: cell-based; details: E. coli, 24 hours; for MIC: Escherichia coli, read-out: MIC (μg/ml) at 24 hours E. coli
VRE = experiment: as above; format: cell-based, Enterococcus spp.; details: for MIC: Enterococcus; for MIC / VRE: VRE; for activity against VRE among analogues: MIC testing, two VRE strains; for MIC (μg/ml) at 24 hours, VRE 2: VRE 2, 24 hours; for MIC (μg/ml) at 24 hours, VRE 1: VRE 1, 24 hours
Procedure, shortened: as §1

Pseudomonas aeruginosa = experiment: as above; format: cell-based; details: for MIC: Pseudomonas aeruginosa, 24 h, read-out: MIC (μg/ml) at 24 hours P. aeruginosa, P. aeruginosa, 24 hours
[2] = system: Staphylococcus aureus T3-129 / Staphylococcus spp. MK1; experiment: Synergy studies, checkerboard method (FIC index); format: cell-based; details: Staphylococcus spp. Strain MK1; for FICI: FIC index of antibiotic with NCL812; for Antibiotic MIC With NCL812: antibiotic in combination with NCL812; for Result (interaction with NCL812): antibiotic with NCL812
[3] = 24 h, read-out: MIC (μg/ml) at 24 hours MRSA 1, MRSA 1, 24 hours
[4] = 24 h, read-out: MIC (μg/ml) at 24 hours MRSA 2, MRSA 2, 24 hours
[5] = bioassay ranking, read-out: MRSA
[6] = 24 h, read-out: MIC (μg/ml) at 24 hours VRE 1, VRE 1, 24 hours
[7] = 24 h, read-out: MIC (μg/ml) at 24 hours VRE 2, VRE 2, 24 hours
[8] = bioassay ranking, read-out: VRE

Row | SMILES | M + R [1] [µg/mL] | activity against MRSA among analogues (MRSA) | MIC (μg/ml) at 24 hours, MRSA 1 (MRSA) | MIC (μg/ml) at 24 hours, MRSA 2 (MRSA) [µg/mL] | MIC (MRSA; [3]) [µg/mL] | MIC (MRSA; [4]) [µg/mL] | MIC (MRSA; [5]) [µg/mL] | MIC (Escherichia coli) [µg/mL] | MIC (VRE; [6]) [µg/mL] | MIC (VRE; [7]) [µg/mL] | activity against VRE among analogues (VRE) | MIC (μg/ml) at 24 hours, VRE 2 (VRE) | MIC (Pseudomonas aeruginosa) [µg/mL] | MRSA (MRSA; bioassay ranking) [µg/mL] | MIC (μg/ml) at 24 hours, E. coli (Escherichia coli) [µg/mL] | MIC (μg/ml) at 24 hours, VRE 1 (VRE) | VRE (VRE; bioassay ranking) [µg/mL] | MIC (μg/ml) at 24 hours, P. aeruginosa (Pseudomonas aeruginosa) [µg/mL] | also measured
1 | Cc1ccc(/C=N/Nc2cc(N/N=C/c3ccc(C)cc3)nc(N)n2)cc1 [NCL195, 4,6-bis(2-((E)-4-methylbenzylidene)hydrazinyl)pyrimidin-2-amine] | 2.75 | greatest activity | 2 µg/mL (≈ 5.56 µM) | 2 (≈ 5.56 µM) | 2 (≈ 5.56 µM) | 2 (≈ 5.56 µM) | 2 (≈ 5.56 µM) | > 128 | 4 (≈ 11.1 µM) | 2 (≈ 5.56 µM) | greatest activity | 4 µg/mL (≈ 11.1 µM) | > 128 | – | – | – | – | – | MIC (VRE; [8]): 3.5 µg/mL (≈ 9.74 µM)
2 | Nc1nc(N/N=C/c2cccc(O)c2)cc(N/N=C/c2cccc(O)c2)n1 [NCL197] | 7.5 | greatest activity | 8 µg/mL (≈ 22 µM) | 8 (≈ 22 µM) | – | – | – | – | – | – | greatest activity | 8 µg/mL (≈ 22 µM) | – | 8 | >128 | 8 µg/mL and 4 µg/mL | 7 | >128 | –
3 | Nc1nc(N/N=C/c2ccccc2O)cc(N/N=C/c2ccccc2O)n1 [NCL202] | 9 | greatest activity | 8 µg/mL (≈ 22 µM) | 8 (≈ 22 µM) | – | – | – | – | – | – | greatest activity | 8 µg/mL (≈ 22 µM) | – | 10 | >128 | 8 µg/mL (≈ 22 µM) | 8 | >128 | –
4 | Cl.Cl.Nc1nc(N/N=C/C2CCCCC2)cc(N/N=C/C2CCCCC2)n1 [NCL203] | 44 | greatest activity | 32 µg/mL | 64 | – | – | – | – | – | – | greatest activity | 32 µg/mL | – | – | >128 | 32 µg/mL and 64 µg/mL | – | >128 | –
5 | CC(=NNC(=N)NN=C(C)c1ccc(Cl)cc1F)c1ccc(Cl)cc1F.Cl [NCL215] | 7.25 | greatest activity | 8 µg/mL and 16 µg/mL | 8 | – | – | – | – | – | – | greatest activity | 4 µg/mL and 8 µg/mL | – | 10 | >128 | 2 µg/mL and 4 µg/mL | 4.5 | >128 | –
6 | Cl.N=C(N/N=C/c1ccc(Cl)cc1F)N/N=C/c1ccc(Cl)cc1F [NCL216] | 2.75 | greatest activity | 2 µg/mL and 4 µg/mL | 2 | – | – | – | – | – | – | greatest activity | 4 µg/mL | – | 2.5 | >128 | 2 µg/mL | 3 | >128 | –
7 | C/C(=N\NC(=N)N/N=C(\C)c1ccc(C)cc1)c1ccc(C)cc1.Cl [NCL217] | 3.5 | greatest activity | – | – | 4 | 4 | 4 | > 128 | 2 | 4 | greatest activity | – | > 128 | – | – | – | – | – | MIC (VRE; [8]): 3 µg/mL
8 | C/C(=N\NC(=N)N/N=C(\C)c1ccc(C(C)(C)C)cc1)c1ccc(C(C)(C)C)cc1.Cl [NCL219] | 9 | greatest activity | – | – | 2 | 2 | 2 | > 128 | 16 | 16 | greatest activity | – | > 128 | – | – | – | – | – | MIC (VRE; [8]): 16 µg/mL
9 | Nc1nc(N/N=C/c2ccc(F)cc2)cc(N/N=C/c2ccc(F)cc2)n1 [NCL220] | 24 | greatest activity | 16 µg/mL (≈ 43.6 µM) | 16 (≈ 43.6 µM) | – | – | – | – | – | – | greatest activity | 32 µg/mL (≈ 87.1 µM) | – | 16 | >128 | 32 µg/mL (≈ 87.1 µM) | 32 | >128 | –
10 | Nc1nc(N/N=C/c2ccc(C(F)(F)F)cc2)cc(N/N=C/c2ccc(C(F)(F)F)cc2)n1 [NCL221] | 33.5 | greatest activity | – | – | 4 (≈ 8.56 µM) | 2 (≈ 4.28 µM) | 3 (≈ 6.42 µM) | > 128 | 64 (≈ 137 µM) | 64 (≈ 137 µM) | greatest activity | – | > 128 | – | – | – | – | – | –
11 | CC1(C)S[C@@H]2[C@H](NC(=O)Cc3ccccc3)C(=O)N2[C@H]1C(=O)O [Penicillin G] | – | – | – | – | – | – | – | – | – | – | – | – | – | – | – | – | – | – | FICI [2]: 1 and 0.625; Antibiotic MIC Alone [2]: 0.125 µg/mL and 0.25 µg/mL; Antibiotic MIC With NCL812 [2]: 0.062 µg/mL and 0.031 µg/mL; Result (interaction with NCL812) [2]: NE (No effect (NE) was defined as 0.5<FICI<4)
12 | Cc1cc(NS(=O)(=O)c2ccc(N)cc2)no1 [Sulfamethoxazole] | – | – | – | – | – | – | – | – | – | – | – | – | – | – | – | – | – | – | FICI [2]: 0.75 and 1; FIC1 ([2]; MIC of antibiotic in combination with NCL812/MIC of antibiotic alone): 0.5; Antibiotic MIC Alone [2]: 8 µg/mL; Antibiotic MIC With NCL812 [2]: 4 µg/mL; Result (interaction with NCL812) [2]: NE (No effect (NE) was defined as 0.5<FICI<4)
